# According to patent publication US9890138B2, “Diaminopyrimidine derivatives and processes for the preparation thereof” (YUHAN CORPORATION, priority 2011, dated 2018):
# Counter-ions that a name gives are not always drawn.
# Biological target: T1, human 5-HT4(a) (Homo sapiens, UniProt Q13639)
# T1 construct: host or cells: GeneBlAzer HTR4-CRE-bla CHO-K1 cells
# Test: Evaluation of agonistic activity in CHO-K1 cells expressing human 5-HT4(a) (GeneBlAzer HTR4-CRE-bla CHO-K1, beta-lactamase reporter)
# Format: cell-based
# Details: CHO-K1 cells stably expressing human 5-HT4(a)
# How it was run: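 Agonism read as CRE-driven β-lactamase activity: emission ratio 465/535 nm (excitation 410 nm) after 2 h substrate loading. Preceded by 5 h compound treatment, 8 concentrations, 1% DMSO in the added solution, of overnight-plated reporter CHO-K1 cells; EC50 by non-linear regression.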
# T1 sequence (Q13639 1-387 isoform Q13639-2): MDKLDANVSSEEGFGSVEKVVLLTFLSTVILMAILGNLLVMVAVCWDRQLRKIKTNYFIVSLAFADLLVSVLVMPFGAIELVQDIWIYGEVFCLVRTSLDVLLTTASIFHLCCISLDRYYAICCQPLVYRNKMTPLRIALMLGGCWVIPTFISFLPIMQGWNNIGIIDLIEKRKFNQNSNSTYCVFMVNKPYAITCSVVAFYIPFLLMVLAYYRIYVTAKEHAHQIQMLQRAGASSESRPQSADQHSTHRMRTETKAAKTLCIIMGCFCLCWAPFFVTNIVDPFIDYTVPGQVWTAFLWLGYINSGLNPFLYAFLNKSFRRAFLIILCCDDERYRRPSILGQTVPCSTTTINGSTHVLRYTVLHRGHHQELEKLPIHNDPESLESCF
row,Compound,EC50 [pM]
1,"CCCc1cc(N2CC[C@H](NS(C)(=O)=O)C2)nc(Nc2ccc(C)c(C#N)c2)n1 [Example 431, (S)—N-{1-[2-(3-cyano-4-methylphenylamino)-6-propylpyrimidin-4-yl]pyrrolidin-3-yl}methanesulfonamide]",29
2,CCCc1cc(N2CC[C@H](NC(=O)NCC)C2)nc(Nc2ccc(C)c(C#N)c2)n1 [Example 433],55
3,CCCc1cc(N2CC[C@H](CN(CC)CC)C2)nc(Nc2cccc(C#N)c2)n1 [Example 434],111
4,CCCCc1cc(N2CC[C@H](NC(C)=O)C2)nc(Nc2ccc(C)c([N+](=O)[O-])c2)n1 [Example 436],10
5,CCCCc1cc(N2CC[C@H](NC(C)=O)C2)nc(Nc2ccc(F)c([N+](=O)[O-])c2)n1 [Example 437],20
6,CCCCc1cc(N2CC[C@H](NC(C)=O)C2)nc(Nc2ccc(Cl)c([N+](=O)[O-])c2)n1 [Example 438],15
7,CCCCc1cc(N2CC[C@H](NC(C)=O)C2)nc(Nc2cc(N)cc(C#N)c2)n1 [Example 439],7.5
8,CCCCc1cc(N2CC[C@H](NC(C)=O)C2)nc(Nc2cc(N)cc(C(F)(F)F)c2)n1 [Example 440],17
9,CCCCc1cc(N2CC[C@H](NC(C)=O)C2)nc(Nc2ccc(N)c(C(F)(F)F)c2)n1 [Example 441],9.5
10,CCCCc1cc(N2CC[C@H](NC(C)=O)C2)nc(Nc2ccc(F)c(C(F)(F)F)c2)n1 [Example 442],41
11,CCCCc1cc(N2CC[C@H](NC(C)=O)C2)nc(Nc2ccc(F)c(C#N)c2)n1 [Example 443],9.9
12,CCCCc1cc(N2CC[C@H](NC(C)=O)C2)nc(Nc2ccc(F)c(N)c2)n1 [Example 444],12
13,CCCCc1cc(N2CC[C@H](NC(C)=O)C2)nc(Nc2ccc(Cl)c(N)c2)n1 [Example 445],9.8
14,CCCCc1cc(N2CC[C@H](NC(C)=O)C2)nc(Nc2ccc(N)c(C#N)c2)n1 [Example 446],7.7
15,CCCCc1cc(N2CC[C@H](NC)C2)nc(Nc2ccc(N)c(C#N)c2)n1 [Example 447],2.3
16,CCCCc1cc(N2CC[C@H](NC)C2)nc(Nc2ccc(C)c([N+](=O)[O-])c2)n1 [Example 448],2.5
17,CCCCc1cc(N2CC[C@H](NC)C2)nc(Nc2ccc(F)c([N+](=O)[O-])c2)n1 [Example 449],4.4
18,CCCCc1cc(N2CC[C@H](NC)C2)nc(Nc2ccc(Cl)c([N+](=O)[O-])c2)n1 [Example 450],7.8
19,CCCCc1cc(N2CC[C@H](NC)C2)nc(Nc2cc(N)cc(C#N)c2)n1 [Example 451],3
20,CCCCc1cc(N2CC[C@H](NC)C2)nc(Nc2cc(N)cc(C(F)(F)F)c2)n1 [Example 452],3.3

row,Compound,EC50 [pM]
1,CCCCc1cc(N2CC[C@H](NC)C2)nc(Nc2ccc(N)c(C(F)(F)F)c2)n1 [Example 453],1.6
2,CCCCc1cc(N2CC[C@H](NC)C2)nc(Nc2ccc(F)c(C(F)(F)F)c2)n1 [Example 454],14
3,CCCCc1cc(N2CC[C@H](NC)C2)nc(Nc2ccc(F)c(C#N)c2)n1 [Example 455],3.8
4,CCCCc1cc(N2CC[C@H](NC)C2)nc(Nc2ccc(F)c(N)c2)n1 [Example 456],2.6
5,CCCCc1cc(N2CC[C@H](NC)C2)nc(Nc2ccc(Cl)c(N)c2)n1 [Example 457],3
6,CCCCc1cc(N2CC[C@H](NCC)C2)nc(Nc2ccc(N)c(C#N)c2)n1 [Example 458],1.7
7,CCCCc1cc(N2CC[C@H](NCC)C2)nc(Nc2cccc(C#N)c2)n1 [Example 459],3.4
8,CCCCc1cc(N2CC[C@H](NCC)C2)nc(Nc2ccc(C)c(C#N)c2)n1 [Example 460],1.9
9,CCCCc1cc(N2CC[C@H](NCC)C2)nc(Nc2ccc(N)c([N+](=O)[O-])c2)n1 [Example 461],1.9
10,CCCCc1cc(N2CC[C@H](NCC)C2)nc(Nc2ccc(C)c([N+](=O)[O-])c2)n1 [Example 462],2.6
11,CCCCc1cc(N2CC[C@H](NCC)C2)nc(Nc2ccc(F)c([N+](=O)[O-])c2)n1 [Example 463],2.1
12,CCCCc1cc(N2CC[C@H](NCC)C2)nc(Nc2ccc(Cl)c([N+](=O)[O-])c2)n1 [Example 464],3.9
13,CCCCc1cc(N2CC[C@H](NCC)C2)nc(Nc2cc(N)cc(C#N)c2)n1 [Example 465],2.2
14,CCCCc1cc(N2CC[C@H](NCC)C2)nc(Nc2cc(N)cc(C(F)(F)F)c2)n1 [Example 466],5.8
15,CCCCc1cc(N2CC[C@H](NCC)C2)nc(Nc2ccc(N)c(C(F)(F)F)c2)n1 [Example 467],1.4
16,CCCCc1cc(N2CC[C@H](NCC)C2)nc(Nc2ccc(F)c(C(F)(F)F)c2)n1 [Example 468],6.2
17,CCCCc1cc(N2CC[C@H](NCC)C2)nc(Nc2ccc(F)c(C#N)c2)n1 [Example 469],2.1
18,CCCCc1cc(N2CC[C@H](NCC)C2)nc(Nc2ccc(F)c(N)c2)n1 [Example 470],2.5
19,CCCCc1cc(N2CC[C@H](NCC)C2)nc(Nc2ccc(Cl)c(N)c2)n1 [Example 471],3.3
20,"CCCc1cc(N2CC[C@H](NC(=O)CO)C2)nc(Nc2ccc(C)c(C#N)c2)n1 [Example 472, (S)—N-{1-[2-(3-cyano-4-methylphenylamino)-6-propylpyrimidin-4-yl]pyrrolidin-3-yl}-2-hydroxyacetamide]",7.5

row,Compound,EC50 [pM]
1,CCCc1cc(N2CC[C@H](NC(=O)CO)C2)nc(Nc2ccc(F)c(C#N)c2)n1 [Example 473],22
2,"CCCc1cc(N2CC[C@H](NC(=O)CO)C2)nc(Nc2cc(N)cc(C#N)c2)n1 [Example 474, (S)—N-{1-[2-(3-amino-5-cyanophenylamino)-6-propylpyrimidin-4-yl]pyrrolidin-3-yl}-2-hydroxyacetamide]",6.6
3,CCCc1cc(N2CC[C@H](NC(=O)CO)C2)nc(Nc2cc(N)cc(C(F)(F)F)c2)n1 [Example 475],11
4,CCCc1cc(N2CC[C@H](NC(=O)CO)C2)nc(Nc2ccc(N)c(C(F)(F)F)c2)n1 [Example 476],14
5,CCCc1cc(N2CC[C@H](NC(=O)CO)C2)nc(Nc2ccc(F)c(C(F)(F)F)c2)n1 [Example 477],9.6
6,CCCc1cc(N2CC[C@H](NC(=O)CO)C2)nc(Nc2ccc(F)c(N)c2)n1 [Example 478],24
7,CCCc1cc(N2CC[C@H](NC(=O)CO)C2)nc(Nc2ccc(Cl)c(N)c2)n1 [Example 479],6.4
8,CCCc1cc(N2CC[C@H](NC(=O)CO)C2)nc(Nc2ccc(C)c(Cl)c2)n1 [Example 480],32
9,CCCc1cc(N2CC[C@H](NC(=O)CO)C2)nc(Nc2ccc(C)c(C(F)(F)F)c2)n1 [Example 481],9.3
10,CCCc1cc(N2CC[C@H](NC)C2)nc(Nc2ccc(F)c(N)c2)n1 [Example 484],5.8
11,CCCc1cc(N2CC[C@H](NC)C2)nc(Nc2cc(N)cc(C#N)c2)n1 [Example 485],2.4
12,CCCc1cc(N2CC[C@H](NC)C2)nc(Nc2ccc(N)c(C#N)c2)n1 [Example 486],1.4
13,CCCc1cc(N2CC[C@H](NC)C2)nc(Nc2cc(N)cc(C(F)(F)F)c2)n1 [Example 487],2.1
14,CCCc1cc(N2CC[C@H](NCC)C2)nc(Nc2ccc(N)c(C#N)c2)n1 [Example 489],1.5
15,CCCc1cc(N2CC[C@H](NC)C2)nc(Nc2ccc(F)c(C(F)(F)F)c2)n1 [Example 490],4.8
16,"CCCc1cc(N2CC[C@H](NCC)C2)nc(Nc2ccc(F)c(C(F)(F)F)c2)n1 [Example 491, (S)-4-[3-(ethylamino)pyrrolidin-1-yl]-N-[4-fluoro-3-(trifluoromethyl)phenyl]-6-propylpyrimidin-2-amine hydrochloride]",2.9
17,"CCCCc1cc(N2CC[C@H](NC(C)=O)C2)nc(Nc2ccc(C)c(C#N)c2)n1 [Example 492, (S)-N-{1-[6-butyl-2-(3-cyano-4-methylphenylamino)pyrimidin-4-yl]pyrrolidin-3-yl}acetamide hydrochloride]",19
18,"CCCc1cc(N2CC[C@H](NC(C)=O)C2)nc(Nc2ccc(C)c(N)c2)n1 [Example 493, (S)-N-{1-[2-(3-amino-4-methylphenylamino)-6-propylpyrimidin-4-yl]pyrrolidin-3-yl}acetamide hydrochloride]",24
19,(S)-2-{1-[2-(indolin-6-ylamino)-6-propylpyrimidin-4-yl]pyrrolidin-2-yl}methanol [Example 217],230
20,(S)-3-amino-5-[4-(3-aminopyrrolidin-1-yl)-6-propylpyrimidin-2-amino]benzonitrile [Example 362],2.1
